Experiments:
[1] = tested on: acute myeloid leukemia (TN and relapsed/refractory AML); experiment: Phase 2 study in AML (TN and r/r): landmark response and survival analyses; type: in vivo, human
Experimental: In a Phase 2 study of 206 AML patients, both treatment naïve (TN), and relapsed/refractory (r/r), patients were treated with Compound I-1 using different doses and schedules. The patients were randomized either to a 5- or 10-day dosing regimen. The patients who were part of the 10-day regimen were given Compound I-1 at 60 mg/m^2/day for 1-4 cycles, then were given the 5-day regimen. The patients who were part of the 5-day regimen were randomized either to the biologically effective dose group (60 mg/m^2 daily) or the highest well tolerated dose group (90 mg/m^2 daily).
Landmark response (CR, CRi, or CRp based on 2003 IWG criteria, grouped together as composite CR or CRc), and overall survival (OS) analyses for patients alive at or beyond month 3 and month 5 (time of planned start of cycle 4 and cycle 6, respectively) were conducted. […] The results in responding and non-responding patients were also compared to see whether survival benefit was restricted to responding patients only.

[2] = tested on: intermediate-risk or high-risk myelodysplastic syndromes (MDS) or chronic myelomonocytic leukemia (CMML); experiment: Phase 1/2 trial (Phase 2 portion) with subgroup and landmark analyses: response, survival, transfusion independence; type: in vivo, human; conditions: for Median survival: all 102 patients
Experimental: A multicenter, open-label, randomized, phase 1/2 trial was performed with Compound I-1 to compare the activity and safety of two doses of Compound I-1 in hypomethylating agent treatment naïve or relapsed or refractory patients with intermediate-risk or high-risk myelodysplastic syndromes.
Patients enrolled in the study were aged 18 years or older, with a confirmed diagnosis of IPSS intermediate-1, intermediate-2, or high-risk myelodysplastic syndromes (MDS), or chronic myelomonocytic leukemia (CMML). Patients were either hypomethylating agent treatment-naïve or had relapsed or refractory disease after previous hypomethylating agent treatment as determined by the investigators' judgment (two or more complete full-dose cycles of a hypomethylating agent). The IPSS score in patients with relapsed or refractory myelodysplastic syndromes had been established at the time of their initial diagnosis. Eligible patients had Eastern Cooperative Oncology Group performance status of 0-2; adequate renal function (serum creatinine ≤1.5-times the upper limit of normal [ULN]) and adequate hepatic function (total bilirubin ≤2-times the ULN, and aspartate and alanine transaminases ≤2.5-times the ULN); had not undergone major surgery within 4 weeks or hemopoietic stem-cell transplantation within 8 weeks; or received chemotherapy within 2 weeks or nitrosoureas within 6 weeks of Compound I-1 treatment (hydroxycarbamide was allowed during treatment cycle 1). A patient with previous allogeneic stem-cell transplants was only eligible if the patient had no evidence of active graft-versus-host disease and had discontinued immunosuppressive therapy 2 weeks or more before receiving the study drug.
Patients received subcutaneous Compound I-1 at 60 or 90 mg/m^2 on days 1-5 of a 28-day treatment cycle. The intention was to provide the standard planned dose for four or more cycles; dose reduction could be instituted, as necessary, and the length of treatment cycles could be extended up to 42 days to allow for bone-marrow recovery in cases of severe cytopenia. Additional delay or dose reduction was allowed for recovery from toxicity in previous cycles based on the physician's judgment.
Hematological responses were monitored by analysis of blood and bone marrow aspiration. After the initial bone marrow aspirate screening at baseline, the results of peripheral blood assessments determined the frequency of subsequent bone marrow aspiration to confirm response or assess drug-related bone marrow toxicity. Complete peripheral blood counts and white blood cell differentials were measured at least once a week, including granulocyte numbers, platelet numbers, and hemoglobin concentration.
The primary endpoint was overall response, which was a composite of complete response (CR), partial response, marrow complete response (mCR), and hematological improvement. Overall response was assessed by local investigators. Secondary endpoints included the individual components of overall response, time to response, duration of response, overall survival, blood transfusion and platelet transfusion independence at weeks 8 and 16, and safety, including the incidence of adverse events, and all-cause early mortality at 30, 60, and 90 days. Exploratory analyses were done to examine the association between baseline characteristics and overall response.
Activity and safety endpoints were evaluated for all patients who received at least one dose of study drug, and no patients who received treatment were excluded from the analyses. […] Time to response and duration of response were summarized in days using descriptive statistics. Overall survival was analyzed using the Kaplan-Meier method, with survival time censored on the last date of contact if the patient was alive or lost to follow-up. Blood and platelet transfusion independence were summarized descriptively in the subset of patients who were transfusion-dependent at baseline. […]

[3] = landmark analysis, at least 4 cycles (65 patients)

Nc1ncn([C@H]2CC(OP(=O)(O)OC[C@H]3O[C@@H](n4cnc5c(=O)[nH]c(N)nc54)CC3O)[C@@H](CO)O2)c(=O)n1 (some centres unmarked) [Compound I-1]
Median OS ([1]; landmark, at least 4 cycles): 13.7 m | CRc rate ([1]; landmark, at least 4 cycles (97 patients)): 62% | OS HR ([1]; landmark, at least 4 cycles vs not): 0.53 | Median OS ([1]; landmark, at least 6 cycles): 19.9 m | CRc rate ([1]; landmark, at least 6 cycles (51 patients)): 82.4% | OS HR ([1]; landmark, at least 6 cycles vs not): 0.42 | Median OS ([1]; landmark, fewer than 4 cycles): 6.1 m | CRc rate ([1]; landmark, fewer than 4 cycles (64 patients)): 25% | Median OS ([1]; landmark, fewer than 6 cycles): 8.8 m | CRc rate ([1]; landmark, fewer than 6 cycles (82 patients)): 35.4% | Median OS ([1]; no CRc, at least 4 cycles): 8 m | OS HR ([1]; no CRc, at least 4 cycles vs not): 0.63 | Median OS ([1]; no CRc, at least 6 cycles): 12.9 m | OS HR ([1]; no CRc, at least 6 cycles vs not): 0.40 | Median OS ([1]; no CRc, fewer than 4 cycles): 5.4 m | Median OS ([1]; no CRc, fewer than 6 cycles): 8 m | 12-month survival ([2]; 60 mg/m^2): 67% | 24-month survival ([2]; 60 mg/m^2): 39% | Duration of response ([2]; 60 mg/m^2): 295 days | Median overall survival ([2]; 60 mg/m^2): 611 days | Partial response ([2]; 60 mg/m^2 (n = 53)): 0 patients | 12-month survival ([2]; 90 mg/m^2): 60% | 24-month survival ([2]; 90 mg/m^2): 30% | Duration of response ([2]; 90 mg/m^2): 207 days | Median overall survival ([2]; 90 mg/m^2): 399 days | Partial response ([2]; 90 mg/m^2 (n = 49)): 0 patients | Median survival ([2]; 4 or more treatment cycles): 20.4 months | OS ([2]; 6 or more treatment cycles): 23.8 months | OS hazard ratio ([2]; 6 or more vs less than 6 treatment cycles): 0.41 | Partial response ([2]; All patients (n = 102)): 0 patients | Median OS ([2]; Baseline BM Blasts >5%): 12.3 months | Median OS ([2]; Baseline BM Blasts ≤5%): 22.7 months | Median OS ([2]; Baseline ECOG PS 0-1): 15.6 months | Median OS ([2]; Baseline ECOG PS 2): 8.7 months | Median OS ([2]; Baseline RBCs Transfusion Dependent): 11.7 months | Median OS ([2]; Baseline RBCs Transfusion Independent): 20.4 months | Partial response ([2]; Relapsed or refractory (n = 53)): 0 patients | Median OS ([2]; TN MDS/CMML patients): 23.4 months | Partial response ([2]; Treatment-naïve (n = 49)): 0 patients | Survival hazard ratio ([2]; at least 4 vs less than 4 treatment cycles): 0.55 | Median duration of complete, partial or marrow complete response ([2]; entire population): 203 days | Median overall survival ([2]; entire study population): 460 days | Median OS ([2]; landmark analysis, <4 cycles): 15.2 m | Objective response (OR) rate ([2]; landmark analysis, <4 cycles (26 patients)): 15% | Median OS ([2]; landmark analysis, <6 cycles): 13.6 m | Objective response (OR) rate ([2]; landmark analysis, <6 cycles (43 patients)): 26% | Median OS ([2]; landmark analysis, at least 4 cycles): 20.4 m | Objective response [2, 3]: 44 patients | Objective response (OR) rate [2, 3]: 68% | OS HR ([2]; landmark analysis, at least 4 vs <4 cycles): 0.78 | Median OS ([2]; landmark analysis, at least 6 cycles): 23.8 m | Objective response (OR) rate ([2]; landmark analysis, at least 6 cycles (44 patients)): 82% | OS HR ([2]; landmark analysis, at least 6 vs <6 cycles): 0.51 | OS HR ([2]; landmark, absence of objective response, at least 4 vs <4 cycles): 0.82 | OS HR ([2]; landmark, absence of objective response, at least 6 vs <6 cycles): 0.42 | Median survival ([2]; less than 4 treatment cycles): 8.7 months | OS ([2]; less than 6 treatment cycles): 9.1 months | Median time to response ([2]; patients with CR or marrow CR, entire study population): 85 days | Median OS ([2]; r/r MDS/CMML patients): 11.7 months | 2-year survival rate ([2]; relapsed or refractory cohort): 25% | Median overall survival ([2]; relapsed or refractory cohort): 352 days | Median overall survival ([2]; relapsed/refractory, 60 mg/m^2): 9.1 months | Median overall survival ([2]; relapsed/refractory, 90 mg/m^2): 12.3 months | 2-year survival rate ([2]; treatment-naïve cohort): 44% | Median overall survival ([2]; treatment-naïve cohort): 703 days
